Reference: ChEMBL document CHEMBL1275557, “First countrywide survey of acquired metallo-beta-lactamases in gram-negative pathogens in Italy” (2008)
≈ marks a conversion by molar mass, not a printed value.

Legend:
Format in all cases: functional
Pseudomonas putida = assay: Antibacterial activity against VIM-1 producing Pseudomonas putida isolate RM-11X-11 by Etest method
Pseudomonas aeruginosa [1] = assay: Antibacterial activity against IMP-13 producing Pseudomonas aeruginosa clone C2 isolate NA-14X-12 by Etest method
Pseudomonas aeruginosa [2] = assay: Antibacterial activity against VIM-1 producing Pseudomonas aeruginosa clone A2 isolate NA-14X-32 by Etest method
Pseudomonas aeruginosa [3] = assay: Antibacterial activity against VIM-1 producing Pseudomonas aeruginosa clone D isolate VA-06X-69 by Etest method
Pseudomonas aeruginosa [4] = assay: Antibacterial activity against VIM-1 producing Pseudomonas aeruginosa clone D3 isolate VA-06X-65 by Etest method
Pseudomonas aeruginosa [5] = assay: Antibacterial activity against VIM-1 producing Pseudomonas aeruginosa clone D2 isolate VA-06X-16 by Etest method
Pseudomonas aeruginosa [6] = assay: Antibacterial activity against VIM-1 producing Pseudomonas aeruginosa clone D2 isolate VA-06X-17 by Etest method
Pseudomonas aeruginosa [7] = assay: Antibacterial activity against VIM-2 producing Pseudomonas aeruginosa clone B3 isolate PV-05X-02 by Etest method
Pseudomonas aeruginosa [8] = assay: Antibacterial activity against VIM-1 producing Pseudomonas aeruginosa clone A2 isolate NA-14X-21 by Etest method
Pseudomonas aeruginosa [9] = assay: Antibacterial activity against IMP-13 producing Pseudomonas aeruginosa clone C2 isolate NA-14X-11 by Etest method
Pseudomonas aeruginosa [10] = assay: Antibacterial activity against IMP-13 producing Pseudomonas aeruginosa clone C2 isolate NA-14X-02 by Etest method
Pseudomonas aeruginosa [11] = assay: Antibacterial activity against VIM-1 producing Pseudomonas aeruginosa clone E isolate VA-06X-29 by Etest method
Pseudomonas aeruginosa [12] = assay: Antibacterial activity against VIM-1 producing Pseudomonas aeruginosa clone A1 isolate FG-17X-14 by Etest method
Pseudomonas aeruginosa [13] = assay: Antibacterial activity against IMP-13 producing Pseudomonas aeruginosa clone C1 isolate AV-13X-28 by Etest method
Pseudomonas aeruginosa [14] = assay: Antibacterial activity against VIM-1 producing Pseudomonas aeruginosa clone A2 isolate NA-14X-26 by Etest method
Pseudomonas aeruginosa [15] = assay: Antibacterial activity against VIM-1 producing Pseudomonas aeruginosa clone A3 isolate FG-17X-08 by Etest method
Enterobacter cloacae = assay: Antibacterial activity against VIM-1 producing Enterobacter cloacae isolate TO-16X-51 by Etest method
Pseudomonas aeruginosa [16] = assay: Antibacterial activity against VIM-2 producing Pseudomonas aeruginosa clone B1 isolate SS-09X-45 by Etest method
Pseudomonas aeruginosa [17] = assay: Antibacterial activity against VIM-2 producing Pseudomonas aeruginosa clone B3 isolate CR-04X-14 by Etest method
Pseudomonas aeruginosa [18] = assay: Antibacterial activity against VIM-1 producing Pseudomonas aeruginosa clone A3 isolate NA-14X-34 by Etest method
Pseudomonas aeruginosa [19] = assay: Antibacterial activity against VIM-1 producing Pseudomonas aeruginosa clone D1 isolate VA-06X-63 by Etest method
Pseudomonas aeruginosa [20] = assay: Antibacterial activity against VIM-1 producing Pseudomonas aeruginosa clone D4 isolate VA-06X-47 by Etest method
Pseudomonas aeruginosa [21] = assay: Antibacterial activity against VIM-2 producing Pseudomonas aeruginosa clone B2 isolate VA-06X-28 by Etest method
Pseudomonas aeruginosa [22] = assay: Antibacterial activity against VIM-1 producing Pseudomonas aeruginosa clone F isolate RM-11X-09 by Etest method
Pseudomonas aeruginosa [23] = assay: Antibacterial activity against IMP-13 producing Pseudomonas aeruginosa clone C2 isolate NA-14X-10 by Etest method
Pseudomonas aeruginosa [24] = assay: Antibacterial activity against VIM-2 producing Pseudomonas aeruginosa clone B2 isolate VA-06X-20 by Etest method
Pseudomonas aeruginosa [25] = assay: Antibacterial activity against VIM-1 producing Pseudomonas aeruginosa clone G isolate NA-14X-13 by Etest method
Pseudomonas aeruginosa [26] = assay: Antibacterial activity against VIM-2 producing Pseudomonas aeruginosa clone B2 isolate VA-06X-38 by Etest method
Pseudomonas aeruginosa [27] = assay: Antibacterial activity against VIM-2 producing Pseudomonas aeruginosa clone B3 isolate PV-05X-07 by Etest method
Pseudomonas aeruginosa [28] = assay: Antibacterial activity against IMP-13 producing Pseudomonas aeruginosa clone C3 isolate PG-12X-03 by Etest method

Row | Compound | MIC (Pseudomonas putida) [µg/mL] | MIC (Pseudomonas aeruginosa [1]) [µg/mL] | MIC (Pseudomonas aeruginosa [2]) [µg/mL] | MIC (Pseudomonas aeruginosa [3]) [µg/mL] | MIC (Pseudomonas aeruginosa [4]) [µg/mL] | MIC (Pseudomonas aeruginosa [5]) [µg/mL] | MIC (Pseudomonas aeruginosa [6]) [µg/mL] | MIC (Pseudomonas aeruginosa [7]) [µg/mL] | MIC (Pseudomonas aeruginosa [8]) [µg/mL] | MIC (Pseudomonas aeruginosa [9]) [µg/mL] | MIC (Pseudomonas aeruginosa [10]) [µg/mL] | MIC (Pseudomonas aeruginosa [11]) [µg/mL] | MIC (Pseudomonas aeruginosa [12]) [µg/mL] | MIC (Pseudomonas aeruginosa [13]) [µg/mL] | MIC (Pseudomonas aeruginosa [14]) [µg/mL] | MIC (Pseudomonas aeruginosa [15]) [µg/mL] | MIC (Enterobacter cloacae) [µg/mL] | MIC (Pseudomonas aeruginosa [16]) [µg/mL] | MIC (Pseudomonas aeruginosa [17]) [µg/mL] | MIC (Pseudomonas aeruginosa [18]) [µg/mL] | further results
1 | O=C(O)c1cn(C2CC2)c2cc(N3CCNCC3)c(F)cc2c1=O [CIPROFLOXACIN] | 0.06 (≈ 0.181 µM) | – | – | – | – | – | – | – | – | – | – | – | – | – | – | – | – | – | – | – | –
2 | COLISTIN | 0.25 | 0.5 | 2 | 1 | 0.5 | 1 | 1 | 1 | 2 | 0.5 | 0.5 | 2 | 1 | 2 | 2 | 0.5 | 0.25 | 2 | 2 | 2 | MIC (Pseudomonas aeruginosa [19]): 1 µg/mL; MIC (Pseudomonas aeruginosa [20]): 1 µg/mL; MIC (Pseudomonas aeruginosa [21]): 1 µg/mL; MIC (Pseudomonas aeruginosa [22]): 1 µg/mL; MIC (Pseudomonas aeruginosa [23]): 0.5 µg/mL; MIC (Pseudomonas aeruginosa [24]): 1 µg/mL; MIC (Pseudomonas aeruginosa [25]): 2 µg/mL; MIC (Pseudomonas aeruginosa [26]): 1 µg/mL; MIC (Pseudomonas aeruginosa [27]): 1 µg/mL; MIC (Pseudomonas aeruginosa [28]): 0.5 µg/mL
3 | CC(C)(O/N=C(\C(=O)N[C@@H]1C(=O)N2C(C(=O)[O-])=C(C[n+]3ccccc3)CS[C@H]12)c1csc(N)n1)C(=O)O [CEFTAZIDIME] | > 128 | > 128 | > 128 | > 128 | > 128 | > 128 | > 128 | 32 (≈ 58.5 µM) | > 128 | > 128 | > 128 | > 128 | > 128 | > 128 | > 128 | > 128 | > 128 | > 128 | 64 (≈ 117 µM) | > 128 | MIC (Pseudomonas aeruginosa [19]): > 128 µg/mL; MIC (Pseudomonas aeruginosa [20]): > 128 µg/mL; MIC (Pseudomonas aeruginosa [21]): 64 µg/mL (≈ 117 µM); MIC (Pseudomonas aeruginosa [22]): > 128 µg/mL; MIC (Pseudomonas aeruginosa [23]): > 128 µg/mL; MIC (Pseudomonas aeruginosa [24]): 64 µg/mL (≈ 117 µM); MIC (Pseudomonas aeruginosa [25]): > 128 µg/mL; MIC (Pseudomonas aeruginosa [26]): 48 µg/mL (≈ 87.8 µM); MIC (Pseudomonas aeruginosa [27]): 32 µg/mL (≈ 58.5 µM); MIC (Pseudomonas aeruginosa [28]): > 128 µg/mL
4 | C[C@H]1COc2c(N3CCN(C)CC3)c(F)cc3c(=O)c(C(=O)O)cn1c23.C[C@H]1COc2c(N3CCN(C)CC3)c(F)cc3c(=O)c(C(=O)O)cn1c23.O [LEVOFLOXACIN] | 0.25 | > 32 | > 32 | > 32 | > 32 | > 32 | > 32 | > 32 | > 32 | > 32 | > 32 | > 32 | > 32 | > 32 | > 32 | > 32 | > 32 | > 32 | > 32 | > 32 | MIC (Pseudomonas aeruginosa [19]): > 32 µg/mL; MIC (Pseudomonas aeruginosa [20]): > 32 µg/mL; MIC (Pseudomonas aeruginosa [21]): > 32 µg/mL; MIC (Pseudomonas aeruginosa [22]): > 32 µg/mL; MIC (Pseudomonas aeruginosa [23]): > 32 µg/mL; MIC (Pseudomonas aeruginosa [24]): > 32 µg/mL; MIC (Pseudomonas aeruginosa [25]): > 32 µg/mL; MIC (Pseudomonas aeruginosa [26]): > 32 µg/mL; MIC (Pseudomonas aeruginosa [27]): > 32 µg/mL; MIC (Pseudomonas aeruginosa [28]): > 32 µg/mL
